The numbers were not newly measured in patent US20090054381A1, “METHODS FOR TREATING RESPIRATORY DISORDERS” (NitroMed, Inc., priority 2005, published 2009), which cites them from elsewhere.

Counter-ions that a name gives are not always drawn.

For the compound `O=[N+]([O-])O[C@H]1CO[C@H]2[C@@H]1OC[C@H]2O[N+](=O)[O-]` [Diluted isosorbide dinitrate, 1,4,3,6-dianhydro-D-glucitol-2,5-dinitrate], the solubility in water entry was “sparingly soluble”. The “solubility in organic solvents” value (organic solvents such as ethanol, ether and chloroform) is “freely soluble”.
As to `NNc1nncc2ccccc12` [Hydralazine hydrochloride, hydralazine hydrochloride], the solubility in water result is “soluble”. The solubility in alcohol result (alcohol) is “slightly soluble”. For the same compound, under “ether”, the solubility in ether entry is on record as “very slightly soluble”.
